The results in this text go back to US7504513B2, “Thiazolyl-benzimidazoles” (Hoffman-La Roche Inc., priority 2006, dated 2009).

In this assay the target is T1, GST-Plk1 (Homo sapiens, UniProt P53350).
T1 construct: Full-length, active GST-Plk1 was purified from Sf9 insect cells; made in house; host or cells: Sf9 insect cells
T1 sequence (P53350 whole entry): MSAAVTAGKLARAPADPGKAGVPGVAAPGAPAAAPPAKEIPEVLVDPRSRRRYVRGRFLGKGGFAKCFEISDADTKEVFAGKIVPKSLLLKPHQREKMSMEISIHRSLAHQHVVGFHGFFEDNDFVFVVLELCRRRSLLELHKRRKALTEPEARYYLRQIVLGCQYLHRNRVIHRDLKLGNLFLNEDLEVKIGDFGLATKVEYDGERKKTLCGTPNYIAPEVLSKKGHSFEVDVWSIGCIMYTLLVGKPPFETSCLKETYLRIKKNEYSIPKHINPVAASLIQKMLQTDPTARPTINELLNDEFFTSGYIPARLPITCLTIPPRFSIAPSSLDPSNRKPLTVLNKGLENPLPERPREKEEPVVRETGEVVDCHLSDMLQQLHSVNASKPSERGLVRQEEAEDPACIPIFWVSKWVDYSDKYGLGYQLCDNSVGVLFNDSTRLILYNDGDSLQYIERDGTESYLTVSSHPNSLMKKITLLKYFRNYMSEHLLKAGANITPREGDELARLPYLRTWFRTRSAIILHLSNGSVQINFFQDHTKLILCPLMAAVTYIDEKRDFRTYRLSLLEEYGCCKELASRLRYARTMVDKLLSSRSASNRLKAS
In words: Biochemical Characterization Assay: HTRF kinase assay, GST-Plk1 phosphorylation of GST-p53. Particulars: full-length active GST-Plk1, GST-p53 substrate, ATP, 37° C. for 35 minutes, HTRF signal. The procedure:
Full-length, active GST-Plk1 was purified from Sf9 insect cells, and full-length GST-p53 was purified in E. coli. Anti-phospho p53 antibody was purchased from Cell Signaling Technology. Europium-conjugated anti-rabbit antibody was purchased from PerkinElmer Life and Analytical Sciences. APC-conjugated anti-GST antibody was purchased from Prozyme.
To two microliters of compound (0.6 nM-4 mM) in DMSO or plain DMSO for control wells, 38 microliters of 20 mM HEPES pH 7, 50 mM NaCl, 10 mM MgCl2, 0.5 mM TCEP, 0.1 mM sodium orthovanadate, 0.1 mg/ml BSA, and 0.05% Triton X-100 (Kinase Assay Buffer) were added. Eight microliters of the compound solution were added to a 384-well black microtiter plate, followed by six microliters of GST-p53 (17 ug/ml) and ATP (333 uM) in Kinase Assay Buffer. Six microliters of GST-Plk1 (3 ug/ml) in Kinase Assay Buffer were then added and the solution incubated at 37° C. for 35 minutes. Six microliters of solution containing 43 mM EDTA to stop the reaction and a 1:600 dilution of anti-phospho-p53 antibody in 20 mM HEPES pH 7, 50 mM NaCl, and 0.5 mg/ml BSA (Antibody Binding Buffer) were added and the solution incubated at 37° C. for 30 minutes. Six microliters of solution containing 9 nM europium-conjugated anti-rabbit antibody and 120 nM APC-conjugated anti-GST antibody in Antibody Binding Buffer were then added and the mixture incubated at room temperature for 1.5 hours. The HTRF signal was read on the Envision reader (PerkinElmer Life and Analytical Sciences).
For `COc1cc2ncn(-c3nc(-c4ccccc4)c(-c4nnn[nH]4)s3)c2cc1OC` [Example 12, 5,6-Dimethoxy-1-[4-phenyl-5-(1H-tetrazol-5-yl)-thiazol-2-yl]-1H-benzoimidazole], the IC50 (usually the midpoint of a concentration-inhibition curve) was 1100 nM.

Regarding `COc1cc2ncn(-c3nc(-c4cccc(Cl)c4)c(C(=O)O)s3)c2cc1OC` [Example 31, 4-(3-Chloro-phenyl)-2-(5,6-dimethoxy-benzoimidazol-1-yl)-thiazole-5-carboxylic acid], the midpoint of inhibition, the IC50, lay at 25 nM. Against the preceding compound, the IC50 is about 44-fold lower.

Regarding `COc1ccc(-c2nc(-n3cnc4cc(OC)c(OC)cc43)sc2C(=O)O)cc1OC` [Example 18, 2-(5,6-Dimethoxy-benzoimidazol-1-yl)-4-(3,4-dimethoxy-phenyl)-thiazole-5-carboxylic acid], the IC50 was 2390 nM.

For `COc1cc2ncn(-c3nc(-c4cccc(C(=O)N(C)C)c4)c(C(=O)O)s3)c2cc1OC` [Example 52, 2-(5,6-Dimethoxy-benzoimidazol-1-yl)-4-(3-dimethylcarbamoyl-phenyl)-thiazole-5-carboxylic acid], it took 8870 nM to reach half-maximal inhibition (IC50).

As for `COc1cccc(NC(=O)c2sc(-n3cnc4cc(OC)c(OC)cc43)nc2-c2cccc(Cl)c2)c1` [Example 55, 4-(3-Chloro-phenyl)-2-(5,6-dimethoxy-benzoimidazol-1-yl)-thiazole-5-carboxylic acid (3-methoxy-phenyl)-amide], inhibition was half-maximal at 250 nM (IC50).

Take `COc1ccc2c(c1)ncn2-c1nc(-c2ccccc2)c(C(=O)O)s1` [Example 62, 2-(5-Methoxy-benzoimidazol-1-yl)-4-phe-nyl-thiazole-5-car-boxylic acid]: 261 nM corresponded to half-maximal inhibition (IC50).

“2-(4-Hydroxy-benzoimidazol-1-yl)-4-phenyl-thiazole-5-carboxylic acid and 2-(7-hydroxy-benzoimidazol-1-yl)-4-phenyl-thiazole-5-carboxylic acid [Example 7]” gave an IC50 of 7470 nM.

As to `COc1cc2ncn(-c3nc(-c4ccccc4)c(C(=O)Nc4ccccc4)s3)c2cc1OC` [Example 38, 2-(5,6-Dimethoxy-benzoimidazol-1-yl)-4-phenyl-thiazole-5-carboxylic acid phenylamide], the concentration for half-maximal inhibition (IC50) was 606 nM. Against the preceding compound, the IC50 is about 12-fold lower.

In the case of `COc1cc2ncn(-c3nc(-c4cccc(Br)c4)c(C(=O)O)s3)c2cc1OC` [Example 42, 4-(3-Bromo-phenyl)-2-(5,6-dimethoxy-benzoimidazol-1-yl)-thiazole-5-carboxylic acid], the IC50 is 40 nM.

“2-(5-Chloro-6-methylbenzoimidazol-1-yl)-4-phenylthiazole-5-carboxylic acid and 2-(6-chloro-5-methylbenzoimidazol-1-yl)-4-phenylthiazole-5-carboxylic acid [Example 16]” returned a concentration for half-maximal inhibition (IC50) of 1170 nM.

The compound `O=C(O)c1sc(-n2cnc3cccc(O)c32)nc1-c1ccccc1` [Example 61, 2-(7-Hydroxy-benzoimidazol-1-yl)-4-phenyl-thiazole-5-carboxylic acid] displayed an IC50 of 4680 nM.

Turning to `C=Cc1ccc(-c2nc(-n3cnc4cc(OC)c(OC)cc43)sc2C(=O)O)cc1` [Example 51, 2-(5,6-Dimethoxy-benzoimidazol-1-yl)-4-(4-vinyl-phenyl)-thiazole-5-carboxylic acid], the IC50 was determined as 2670 nM.

Regarding “2-(5-Chloro-6-fluoro-benzoimidazol-1-yl)-4-phenyl-thiazole-5-carboxylic acid and 2-(6-chloro-5-fluoro-benzoimidazol-1-yl)-4-phenyl-thiazole-5-carboxylic acid [Example 35]”, half-maximal inhibition (IC50) required 1290 nM.

`C=Cc1cccc(-c2nc(-n3cnc4cc(OC)c(OC)cc43)sc2C(=O)O)c1` [Example 40, 2-(5,6-Dimethoxy-benzoimidazol-1-yl)-4-(3-vinyl-phenyl)-thiazole-5-carboxylic acid] came in with an IC50 of 102 nM.

Turning to `COc1cc2ncn(-c3nc(-c4ccc(C(F)(F)F)c(Cl)c4)c(C(=O)O)s3)c2cc1OC` [Example 45, 4-(3-Chloro-4-trifluoromethyl-phenyl)-2-(5,6-dimethoxy-benzoimidazol-1-yl)-thiazole-5-carboxylic acid], inhibition was half-maximal at 354 nM (IC50).

`COc1cc2ncn(-c3nc(-c4cccc(F)c4)c(C(=O)O)s3)c2cc1OC` [Example 17, 2-(5,6-Dimethoxy-benzoimidazol-1-yl)-4-(3-fluoro-phenyl)-thiazole-5-carboxylic acid] came in with an IC50 of 69 nM.

Compound `COc1cc2ncn(-c3nc(-c4cccc(C(F)(F)F)c4)c(C(=O)O)s3)c2cc1OC` [Example 43, 2-(5,6-Dimethoxy-benzoimidazol-1-yl)-4-(3-trifluoromethyl-phenyl)-thiazole-5-carboxylic acid] showed an IC50 of 157 nM.

With `Cc1cc2ncn(-c3nc(-c4ccccc4)c(C(=O)O)s3)c2cc1C` [Example 5, 2-(5,6-Dimethylbenzoimidazol-1-yl)-4-phenylthiazole-5-carboxylic acid], the IC50 was 2490 nM.

“2-(5-Methoxy-6-methylbenzoimidazol-1-yl)-4-phenylthiazole-5-carboxylic acid and 2-(6-methoxy-5-methylbenzoimidazol-1-yl)-4-phenylthiazole-5-carboxylic acid [Example 59]” yielded an IC50 of 826 nM. This IC50 is about 3-fold lower than that of the compound before.

Compound `COc1cc2ncn(-c3nc(-c4cccc(Cl)c4)c(C(=O)NNC(=O)c4cccc(C)c4)s3)c2cc1OC` [Example 58, 3-Methyl-benzoic acid N′-[4-(3-chloro-phenyl)-2-(5,6-dimethoxy-benzoimidazol-1-yl)-thiazole-5-carbonyl]-hydrazide] returned an IC50 of 586 nM.

Regarding “2-(5-Methylbenzoimidazol-1-yl)-4-phenylthiazole-5-carboxylic acid and 2-(6-Methylbenzoimidazol-1-yl)-4-phenylthiazole-5-carboxylic acid [Example 4]”, the IC50 is 1550 nM.

Compound `COc1cc2ncn(-c3nc(-c4cccc(F)c4F)c(C(=O)O)s3)c2cc1OC` [Example 29, 4-(2,3-Difluoro-phenyl)-2-(5,6-dimethoxy-benzoimidazol-1-yl)-thiazole-5-carboxylic acid] gave an IC50 of 538 nM.

With `COc1cc2ncn(-c3nc(-c4ccc(C)cc4)c(C(=O)O)s3)c2cc1OC` [Example 26, 2-(5,6-Dimethoxy-benzoimidazol-1-yl)-4-p-tolyl-thiazole-5-carboxylic acid], inhibition was half-maximal at 657 nM (IC50). This IC50 and that of the compound before are within 1.5-fold of each other.

Regarding “1-(5-Carboxy-4-phenyl-thiazol-2-yl)-1H-benzoimidazole-4-carboxylic acid and 3-(5-carboxy-4-phenyl-thiazol-2-yl)-3H-benzoimidazole-4-carboxylic acid [Example 8]”, half-maximal inhibition (IC50) was put at 6420 nM.

The compound `COc1cc2ncn(-c3nc(-c4ccsc4)c(C(=O)O)s3)c2cc1OC` [Example 25, 2-(5,6-Dimethoxy-benzoimidazol-1-yl)-4-thiophen-3-yl-thiazole-5-carboxylic acid] displayed a half-maximal inhibitory concentration (IC50) of 781 nM.

In turn, `COc1cc2ncn(-c3nc(-c4ccc(Cl)c(Cl)c4)c(C(=O)O)s3)c2cc1OC` [Example 23, 4-(3,4-Dichloro-phenyl)-2-(5,6-dimethoxy-benzoimidazol-1-yl)-thiazole-5-carboxylic acid] showed an IC50 of 216 nM.

The compound `COc1cc2ncn(-c3nc(-c4cccc(O)c4)c(C(=O)O)s3)c2cc1OC` [Example 34, 2-(5,6-Dimethoxy-benzoimidazol-1-yl)-4-(3-hydroxy-phenyl)-thiazole-5-carboxylic acid] showed an IC50 of 211 nM.

As to `COCCOc1cc2ncn(-c3nc(-c4ccccc4)c(C(=O)O)s3)c2cc1OCCOC` [Example 48, 2-[5,6-Bis-(2-methoxy-ethoxy)-benzoimidazol-1-yl]-4-phenyl-thiazole-5-carboxylic acid], the IC50 was 819 nM.

The compound “2-(5-Hydroxy-benzoimidazol-1-yl)-4-phe-nyl-thiazole-5-car-boxylic acid; compoundwith 2-(6-hydroxy-benzoimidazol-1-yl)-4-phenyl-thiazole-5-carboxylic acid [Example 65]” gave an IC50 of 388 nM.

In turn, `COc1cc2ncn(-c3nc(-c4ccc5c(c4)OCCO5)c(C(=O)O)s3)c2cc1OC` [Example 50, 4-(2,3-Dihydro-benzo[1,4]dioxin-6-yl)-2-(5,6-dimethoxy-benzoimidazol-1-yl)-thiazole-5-carboxylic acid] returned an IC50 of 2340 nM.

Turning to “2-(5-Methoxy-benzoimidazol-1-yl)-4-phe-nyl-thiazole-5-car-boxylic acid; compoundwith 2-(6-methoxy-benzoimidazol-1-yl)-4-phenyl-thiazole-5-carboxylic acid [Example 15]”, inhibition was half-maximal at 226 nM (IC50).

`O=C(O)c1sc(-n2cnc3ccccc32)nc1-c1ccccc1` [Example 2, 2-(Benzoimidazol-1-yl)-4-phenylthiazole-5-carboxylic acid] showed an IC50 of 772 nM.

For `COc1cc2ncn(-c3nc(-c4ccccc4)c(C(=O)NC4CC4)s3)c2cc1OC` [Example 13, 2-(5,6-Dimethoxy-benzoimidazol-1-yl)-4-phenyl-thiazole-5-carboxylic acid cyclopropylamide], the IC50 was 3310 nM. This IC50 lies about 4.3-fold higher than the previous one.
